From publication PMC4337988 (Science (New York, N.Y.), 2014)

Tests used:
BcPyrR = BcPyrR ([Bacillus] caldolyticus, UniProt P41007); assay: SEC-MALS; format: binding; conditions: 50 mM Tris pH 7.5, 150 mM NaCl, 1 mM DTT, room temperature; allosteric
BsPyrR = BsPyrR (Bacillus subtilis, UniProt P39765); assay: SEC-MALS; format: binding; conditions: 50 mM Tris pH 7.5, 150 mM NaCl, 1 mM DTT, room temperature; allosteric
BsPyrR, sequence (P39765 whole entry): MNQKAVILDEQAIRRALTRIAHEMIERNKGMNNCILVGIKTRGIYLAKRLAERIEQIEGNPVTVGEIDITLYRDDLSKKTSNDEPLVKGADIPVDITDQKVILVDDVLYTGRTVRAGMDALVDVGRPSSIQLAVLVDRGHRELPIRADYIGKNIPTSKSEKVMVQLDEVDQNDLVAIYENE

BcPyrR, sequence (P41007 whole entry): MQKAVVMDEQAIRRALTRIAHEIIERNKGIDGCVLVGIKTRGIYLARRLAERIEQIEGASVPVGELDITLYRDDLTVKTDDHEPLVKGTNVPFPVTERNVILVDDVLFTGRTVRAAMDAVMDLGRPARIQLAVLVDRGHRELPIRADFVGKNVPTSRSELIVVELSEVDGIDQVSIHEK

| Structure (SMILES) | SEC-MALS (oligomeric state shift) (BcPyrR) | SEC-MALS (oligomeric state shift) (BsPyrR) |
| --- | --- | --- |
| Nc1nc2c(ncn2[C@@H]2O[C@H](COP(=O)(O)O)[C@@H](O)[C@H]2O)c(=O)[nH]1 [GMP] | We analysed the oligomeric state of BsPyrR and BcPyrR by SEC-MALS upon addition of allosteric ligands |  |
| O=c1ccn([C@@H]2O[C@H](COP(=O)(O)O)[C@@H](O)[C@H]2O)c(=O)[nH]1 [UMP] | both UMP and GMP stabilize the tetrameric state of PyrR | both UMP and GMP stabilize the tetrameric state of PyrR |
